Holding throughout (type): functional
Experiment [1] concerns Schistosoma mansoni. The experiment in a line: MMV: Toxicity @ 5 uM to 4-5 Schistosoma mansoni adult males after 72 h on a scale of 0 (none) - 4 (most). Includes short descriptors of effects as judged visually (PMID:19597541). Only those Malaria box 'drug-like' cpds yielding the most severe phenotypes vs. somules were tested. Caffrey group UCSF.
The test system of experiment [2] is Schistosoma mansoni. Further details: scale not given here.
The test system of experiment [3] is Schistosoma mansoni. Also on record: scale not given here. The source holds these as a separate data set.
The subject of experiment [4] is Schistosoma mansoni. The experiment in a line: MMV: Motility assay. Percent change (relative to DMSO controls) @ 5 uM of movement of 4-5 Schistosoma mansoni adult males after 24 h as measured by the Consensus Voting Luminance Difference algorithm available on WormAssay (PMID:22303493). Occasional incongruence ocurrs between the motility scores and the visually adjudicated 'toxicity scores'. In these cases the 'toxicity score' should be prioritized. Only those Malaria box 'Drug-like' cpds yielding the most severe phenotypes vs. somules were tested. Caffrey group UCSF.

Experiment [5] concerns Schistosoma mansoni. The experiment can be described thus: MMV: Motility assay. Percent change (relative to DMSO controls) @ 5 uM of movement of 4-5 Schistosoma mansoni adult males after 72 h as measured by the Consensus Voting Luminance Difference algorithm available on WormAssay (PMID:22303493). Occasional incongruence ocurrs between the motility scores and the visually adjudicated 'toxicity scores'. In these cases the 'toxicity score' should be prioritized. Only those Malaria box 'Drug-like' cpds yielding the most severe phenotypes vs. somules were tested. Caffrey group UCSF.

The subject of experiment [6] is Schistosoma mansoni. The experiment can be described thus: MMV: Toxicity @ 5 uM to 4-5 Schistosoma mansoni adult males after 48 h on a scale of 0 (none) - 4 (most). Includes short descriptors of effects as judged visually (PMID:19597541). Only those Malaria box 'drug-like' cpds yielding the most severe phenotypes vs. somules were tested. Caffrey group UCSF.
Experiment [7] deals with Schistosoma mansoni. The experiment in a line: MMV: Toxicity @ 5 uM to 4-5 Schistosoma mansoni adult males after 24 h on a scale of 0 (none) - 4 (most). Includes short descriptors of effects as judged visually (PMID:19597541). Only those Malaria box 'drug-like' cpds yielding the most severe phenotypes vs. somules were tested. Caffrey group UCSF.
Experiment [8] deals with Schistosoma mansoni. Further details: scale not given here. The source holds these as a separate data set.
Experiment [9] relates to Schistosoma mansoni. The experiment in a line: MMV: Motility assay. Percent change (relative to DMSO controls) @ 5 uM of movement of 4-5 Schistosoma mansoni adult males after 48 h as measured by the Consensus Voting Luminance Difference algorithm available on WormAssay (PMID:22303493). Occasional incongruence ocurrs between the motility scores and the visually adjudicated 'toxicity scores'. In these cases the 'toxicity score' should be prioritized. Only those Malaria box 'Drug-like' cpds yielding the most severe phenotypes vs. somules were tested. Caffrey group UCSF.

Turning to `Cc1cc(N2CCCC2)nc(Nc2ccc(NC(=O)CCc3ccccc3)cc2)n1`, the Toxicity in the experiment on Schistosoma mansoni [1] is 1; in the experiment on Schistosoma mansoni [2], 4; with Schistosoma mansoni [3] it was 0; in the experiment on Schistosoma mansoni [6], 3; with Schistosoma mansoni [7], 2; in the experiment with Schistosoma mansoni [8] it was 4. Besides, the Motility is 28.9 with Schistosoma mansoni [4], “Slow” with Schistosoma mansoni [5] and 104.8 with Schistosoma mansoni [9].
Consider `COc1ccc(Nc2nc(NCc3ccccc3)c3ccccc3n2)cc1`, for which the Toxicity turned out to be 0 in the experiment with Schistosoma mansoni [1]; 4 in the experiment on Schistosoma mansoni [2]; 2 in the experiment on Schistosoma mansoni [3]; 0 with Schistosoma mansoni [6]; 0 with Schistosoma mansoni [7]; 4 in the experiment on Schistosoma mansoni [8]. Moreover, the Motility is 100 in the experiment on Schistosoma mansoni [4], “No effect” with Schistosoma mansoni [5] and 105.7 with Schistosoma mansoni [9].
With `Cc1cc(C)c2nc(N3CCC(C(=O)NCCCN4CCC(N5CCCCC5)CC4)CC3)sc2c1`, the Toxicity in the experiment on Schistosoma mansoni [1] stood at 0; in the experiment on Schistosoma mansoni [2], 4; with Schistosoma mansoni [3] it was 4; with Schistosoma mansoni [6], 0; in the experiment on Schistosoma mansoni [7], 0; with Schistosoma mansoni [8], 4. Besides, the Motility turned out to be 97.4 in the experiment with Schistosoma mansoni [4], 117 in the experiment with Schistosoma mansoni [5] and 125.2 with Schistosoma mansoni [9].
`CC(C)OCc1cc(CN2CCN(c3cccc(Cl)c3)CC2)c(O)c2ncccc12`: the Toxicity came to 2 with Schistosoma mansoni [1]; 3 in the experiment on Schistosoma mansoni [2]; 2 in the experiment with Schistosoma mansoni [3]; 2 in the experiment with Schistosoma mansoni [6]; 2 in the experiment on Schistosoma mansoni [7]; 4 in the experiment with Schistosoma mansoni [8]. Further, the Motility in the experiment with Schistosoma mansoni [4] is 27.4; in the experiment on Schistosoma mansoni [5], 59.8; with Schistosoma mansoni [9], 55.2.
Turning to `COc1ccc(CCN2CCC(CN(C)Cc3cnn(-c4ccccc4)c3)CC2)cc1`, the Toxicity is 0 in the experiment on Schistosoma mansoni [1]; 1 with Schistosoma mansoni [2]; 2 with Schistosoma mansoni [3]; 0 with Schistosoma mansoni [6]; 0 in the experiment on Schistosoma mansoni [7]; 1 in the experiment on Schistosoma mansoni [8]. Moreover, the Motility is on record as 33.8 with Schistosoma mansoni [4], 70.2 in the experiment on Schistosoma mansoni [5] and 114.8 with Schistosoma mansoni [9].
Turning to `CC(C)(C)CC(C)(C)NCC(O)COc1ccc(Cl)cc1Cl` (stereo not drawn), the Toxicity with Schistosoma mansoni [2] came to 4; in the experiment on Schistosoma mansoni [3], 0; with Schistosoma mansoni [6], 1; in the experiment on Schistosoma mansoni [7], 0; with Schistosoma mansoni [8], 4. In the experiment with Schistosoma mansoni [9], this compound had a Motility of 53.
Regarding `Cl.OC(CNCc1ccccc1)Cn1c2ccccc2c2ccccc21` (stereo not drawn), the Toxicity in the experiment on Schistosoma mansoni [1] is reported as 0; with Schistosoma mansoni [2] it was 4; in the experiment on Schistosoma mansoni [3], 4; in the experiment with Schistosoma mansoni [6], 0; with Schistosoma mansoni [7], 0; with Schistosoma mansoni [8], 4. Besides, the results for the Motility in the experiment with Schistosoma mansoni [4], in the experiment on Schistosoma mansoni [5] and with Schistosoma mansoni [9] were 38.1, “No effect” and 49.4, respectively.
For `O=C(Nc1cccc(C(F)(F)F)c1)c1cc(Cl)ccc1O`, the Toxicity in the experiment with Schistosoma mansoni [1], with Schistosoma mansoni [2], in the experiment with Schistosoma mansoni [3], in the experiment with Schistosoma mansoni [6], in the experiment on Schistosoma mansoni [7] and in the experiment with Schistosoma mansoni [8] was 4 throughout. The values for the Motility with Schistosoma mansoni [4], in the experiment with Schistosoma mansoni [5] and in the experiment on Schistosoma mansoni [9] were 0.5, 0.7 and 0.4, respectively.
As for `COc1ccc(CNC2CCN(c3ccc(NC(=O)c4cccc(Cl)c4)cc3)CC2)cc1OC`, the Toxicity with Schistosoma mansoni [1] worked out at 0; with Schistosoma mansoni [2] it was 4; in the experiment on Schistosoma mansoni [3], 2; with Schistosoma mansoni [6], 0; in the experiment on Schistosoma mansoni [7], 0; with Schistosoma mansoni [8] it was 4. Further, the Motility came to 104.8 with Schistosoma mansoni [4], 49 in the experiment with Schistosoma mansoni [5] and 45.4 in the experiment with Schistosoma mansoni [9].
Consider `Clc1ccc2c(N3CCCC3)ccnc2c1`, for which the Toxicity is reported as 0 in the experiment on Schistosoma mansoni [1]; 0 in the experiment on Schistosoma mansoni [2]; 1 with Schistosoma mansoni [3]; 0 with Schistosoma mansoni [6]; 0 in the experiment on Schistosoma mansoni [7]; 2 with Schistosoma mansoni [8]. Moreover, the Motility with Schistosoma mansoni [4] was 163; in the experiment on Schistosoma mansoni [5], “No effect”; in the experiment with Schistosoma mansoni [9], 131.1.
In the case of `COc1ccc(CNC(=O)c2cc3c(=O)n4ccccc4nc3n(CCc3ccccc3)c2=N)cc1`, the figures for the Toxicity in the experiment on Schistosoma mansoni [2], with Schistosoma mansoni [3] and in the experiment with Schistosoma mansoni [8] were 4, 1 and 4, respectively.
As for `Oc1ccc(-c2nc(-c3ccc4oc5ccc(-c6[nH]c(-c7ccc(O)cc7)nc6-c6ccccc6)cc5c4c3)c(-c3ccccc3)[nH]2)cc1`, the Toxicity in the experiment with Schistosoma mansoni [2], in the experiment with Schistosoma mansoni [3] and in the experiment with Schistosoma mansoni [8] was 0 throughout.
Consider `Cl.Oc1ccccc1CNCC12CC3CC(CC(C3)C1)C2`, for which the Toxicity with Schistosoma mansoni [2], in the experiment with Schistosoma mansoni [3] and with Schistosoma mansoni [8] was 0 each time.
In the case of `CCOc1ccc(/C=C/c2nc(=O)c3ccccc3o2)cc1`, the Toxicity in the experiment on Schistosoma mansoni [2], in the experiment on Schistosoma mansoni [3] and in the experiment with Schistosoma mansoni [8] was 0 throughout.
As to `Cc1ccc(Cn2c(N3CCC(C(=O)NCc4cccs4)CC3)nc3ccccc32)cc1`, the Toxicity with Schistosoma mansoni [2], with Schistosoma mansoni [3] and in the experiment on Schistosoma mansoni [8] was 0 in each case.
With `CCCCCCc1cc2cc(-c3csc(C=Cc4ccccc4)n3)c(=O)oc2cc1O`, the Toxicity in the experiment on Schistosoma mansoni [2], in the experiment on Schistosoma mansoni [3] and in the experiment on Schistosoma mansoni [8] was 0 each time.
Regarding `COc1ccc2sc(N(Cc3cccnc3)C(=O)c3ccc(C#N)cc3)nc2c1`, the Toxicity in the experiment on Schistosoma mansoni [2], in the experiment with Schistosoma mansoni [3] and with Schistosoma mansoni [8] was 0 throughout.
Regarding `Cc1ccc(Cl)cc1N1CCN(CCCNC(=O)C2CCN(c3nc4ccccc4[nH]3)CC2)CC1`, the Toxicity in the experiment on Schistosoma mansoni [2] turned out to be 0; in the experiment with Schistosoma mansoni [3], 0; in the experiment on Schistosoma mansoni [8], 3.
For `CCOc1cc2c(cc1OCC)C(c1cc(Cl)c(O)c(OCC)c1)NCC2` (stereo not drawn), the Toxicity in the experiment with Schistosoma mansoni [2], in the experiment on Schistosoma mansoni [3] and with Schistosoma mansoni [8] was 0 in each case.
For `O=C(NCCCN1CCC(N2CCCCC2)CC1)C1=Cc2cc(Br)ccc2OC1`, the Toxicity in the experiment on Schistosoma mansoni [2] turned out to be 1; in the experiment on Schistosoma mansoni [3], 0; with Schistosoma mansoni [8], 4.
The like results for `COc1ccccc1N1CCN(C(CNS(=O)(=O)c2ccc(Cl)cc2)c2cccnc2)CC1` (stereo not drawn) were, in that order, 0, 0 and 0.
Regarding `N=c1c2ccccc2nnn1-c1cccc(C(F)(F)F)c1`, the Toxicity in the experiment with Schistosoma mansoni [2], in the experiment on Schistosoma mansoni [3] and in the experiment with Schistosoma mansoni [8] was 0 each time.
As to `O=C(NCc1ccco1)C1CCN(S(=O)(=O)c2ccc(Br)cc2)CC1`, the Toxicity with Schistosoma mansoni [2], in the experiment on Schistosoma mansoni [3] and in the experiment with Schistosoma mansoni [8] was 0 throughout.
For `COc1ccc(Nc2nc(N/N=C/c3ccc(O)cc3)nc(Nc3ccc([N+](=O)[O-])cc3)n2)cc1`, the Toxicity in the experiment with Schistosoma mansoni [2], in the experiment with Schistosoma mansoni [3] and in the experiment with Schistosoma mansoni [8] was 0 in each case.
With `CCOC(=O)c1c(NC(=O)c2ccccc2)sc2c(O)c(CN(CC)CC)ccc12`, the Toxicity in the experiment with Schistosoma mansoni [2], in the experiment with Schistosoma mansoni [3] and with Schistosoma mansoni [8] was 0 each time.
As for `O=C(NC1CCN(Cc2ccccc2)CC1)c1cc(-c2ccncc2)nc2ccc(Cl)cc12`, the Toxicity in the experiment on Schistosoma mansoni [2] was 0; with Schistosoma mansoni [3], 0; in the experiment on Schistosoma mansoni [8], 2.
In the case of `c1ccc2cc3c(Nc4ccc(N5CCOCC5)cc4)ccnc3cc2c1`, the Toxicity is 4 with Schistosoma mansoni [2], 2 in the experiment with Schistosoma mansoni [3] and 4 with Schistosoma mansoni [8].
For the compound `CCOC(=O)C1=CN(C)C=C(C(=O)OCC)C1c1cc(Br)c(OCC)c(OC)c1`, the Toxicity with Schistosoma mansoni [2], with Schistosoma mansoni [3] and in the experiment on Schistosoma mansoni [8] was 0 in each case.
For the compound `Cc1ccc(N2C(=O)C3C(C2=O)C2(c4ccccc4)C(=O)C3(c3ccccc3)C(c3ccccc3)=C2c2ccccc2)cc1` (stereo not drawn), the Toxicity with Schistosoma mansoni [2], in the experiment on Schistosoma mansoni [3] and with Schistosoma mansoni [8] was 1 in each case.
Consider `CCCCCC(=O)N1c2ccccc2N=C2CC(c3ccc(OC)c(OC)c3)CC(O)=C2C1c1ccc(C(F)(F)F)cc1` (stereo not drawn), for which the Toxicity in the experiment on Schistosoma mansoni [2], in the experiment on Schistosoma mansoni [3] and in the experiment with Schistosoma mansoni [8] was 0 throughout.
In the case of `O=C(Nc1ccc(Cl)c(Cl)c1)Nc1ccc(Cl)c(Cl)c1`, the Toxicity with Schistosoma mansoni [2] was determined as 3; in the experiment with Schistosoma mansoni [3] it was 3; in the experiment with Schistosoma mansoni [8], 4.
As for `COc1cccc(Cn2c(Oc3ccccc3)nc3c2c(=O)n(C)c(=O)n3C)c1`, the Toxicity in the experiment with Schistosoma mansoni [2], in the experiment with Schistosoma mansoni [3] and with Schistosoma mansoni [8] was 0 each time.

Values taken from ChEMBL document CHEMBL2363022, “Malaria Box Schistosomiasis Screening Data” (2013).
